Experiment: xn = mol fraction of the nth substance listed
Details: Liquid; for viscosity: 101 kPa, Capillary tube (Ostwald / Ubbelohde) method; for mass density: 101.3 kPa

CC(C)(C)Cl [2-chloro-2-methylpropane] + CC(C)OC(C)C
Details | mass density [kg/m3] | viscosity [mPa·s]
283.15 K, x1 = 0.049 | 738.51 | 0.3693
283.15 K, x1 = 0.0996 | 743.477 | 0.3746
283.15 K, x1 = 0.1991 | 753.625 | 0.386
283.15 K, x1 = 0.3212 | 766.738 | 0.4025
283.15 K, x1 = 0.4189 | 777.752 | 0.4183
283.15 K, x1 = 0.5148 | 789.053 | 0.4365
283.15 K, x1 = 0.6213 | 802.211 | 0.4606
283.15 K, x1 = 0.7152 | 814.386 | 0.4862
283.15 K, x1 = 0.8138 | 827.842 | 0.5182
283.15 K, x1 = 0.9079 | 841.347 | 0.555
283.15 K, x1 = 0.9552 | 848.401 | 0.5761
283.15 K, x1 = 1 | 855.249 | 0.598
288.15 K, x1 = 0.049 | 733.338 | 0.3531
288.15 K, x1 = 0.0996 | 738.271 | 0.358
288.15 K, x1 = 0.1991 | 748.35 | 0.3683
288.15 K, x1 = 0.3212 | 761.373 | 0.3827
288.15 K, x1 = 0.4189 | 772.308 | 0.3963
288.15 K, x1 = 0.5148 | 783.527 | 0.412
288.15 K, x1 = 0.6213 | 796.59 | 0.4328
288.15 K, x1 = 0.7152 | 808.683 | 0.4549
288.15 K, x1 = 0.8138 | 822.038 | 0.4829
288.15 K, x1 = 0.9079 | 835.446 | 0.5154
288.15 K, x1 = 0.9552 | 842.442 | 0.5342
288.15 K, x1 = 1 | 849.243 | 0.5538
293.15 K, x1 = 0.049 | 728.121 | 0.3381
293.15 K, x1 = 0.0996 | 733.024 | 0.3425
293.15 K, x1 = 0.1991 | 743.024 | 0.3515
293.15 K, x1 = 0.3212 | 755.959 | 0.3641
293.15 K, x1 = 0.4189 | 766.815 | 0.376
293.15 K, x1 = 0.5148 | 777.959 | 0.3894
293.15 K, x1 = 0.6213 | 790.929 | 0.4075
293.15 K, x1 = 0.7152 | 802.935 | 0.4268
293.15 K, x1 = 0.8138 | 816.186 | 0.4512
293.15 K, x1 = 0.9079 | 829.489 | 0.4796
293.15 K, x1 = 0.9552 | 836.437 | 0.4962
293.15 K, x1 = 1 | 843.191 | 0.5135
298.15 K, x1 = 0.049 | 722.867 | 0.3217
298.15 K, x1 = 0.0996 | 727.738 | 0.3258
298.15 K, x1 = 0.1991 | 737.666 | 0.3342
298.15 K, x1 = 0.3212 | 750.506 | 0.3458
298.15 K, x1 = 0.4189 | 761.288 | 0.3564
298.15 K, x1 = 0.5148 | 772.351 | 0.3686
298.15 K, x1 = 0.6213 | 785.231 | 0.3845
298.15 K, x1 = 0.7152 | 797.145 | 0.4014
298.15 K, x1 = 0.8138 | 810.301 | 0.4229
298.15 K, x1 = 0.9079 | 823.502 | 0.4476
298.15 K, x1 = 0.9552 | 830.397 | 0.4619
298.15 K, x1 = 1 | 837.096 | 0.4768
303.15 K, x1 = 0.049 | 717.578 | 0.304
303.15 K, x1 = 0.0996 | 722.412 | 0.308
303.15 K, x1 = 0.1991 | 732.264 | 0.3164
303.15 K, x1 = 0.3212 | 745.013 | 0.3277
303.15 K, x1 = 0.4189 | 755.716 | 0.3379
303.15 K, x1 = 0.5148 | 766.702 | 0.3492
303.15 K, x1 = 0.6213 | 779.484 | 0.3639
303.15 K, x1 = 0.7152 | 791.308 | 0.3791
303.15 K, x1 = 0.8138 | 804.365 | 0.3979
303.15 K, x1 = 0.9079 | 817.467 | 0.4191
303.15 K, x1 = 0.9552 | 824.312 | 0.4313
303.15 K, x1 = 1 | 830.958 | 0.4438
308.15 K, x1 = 0.049 | 712.24 | 0.2892
308.15 K, x1 = 0.0996 | 717.039 | 0.2928
308.15 K, x1 = 0.1991 | 726.821 | 0.3006
308.15 K, x1 = 0.3212 | 739.479 | 0.3115
308.15 K, x1 = 0.4189 | 750.102 | 0.3216
308.15 K, x1 = 0.5148 | 761.005 | 0.3327
308.15 K, x1 = 0.6213 | 773.688 | 0.3468
308.15 K, x1 = 0.7152 | 785.436 | 0.3613
308.15 K, x1 = 0.8138 | 798.392 | 0.3787
308.15 K, x1 = 0.9079 | 811.393 | 0.398
308.15 K, x1 = 0.9552 | 818.179 | 0.4087
308.15 K, x1 = 1 | 824.772 | 0.4196
313.15 K, x1 = 0.049 | 706.856 | 0.2751
313.15 K, x1 = 0.0996 | 711.61 | 0.2783
313.15 K, x1 = 0.1991 | 721.328 | 0.2856
313.15 K, x1 = 0.3212 | 733.893 | 0.2963
313.15 K, x1 = 0.4189 | 744.44 | 0.3061
313.15 K, x1 = 0.5148 | 755.257 | 0.3171
313.15 K, x1 = 0.6213 | 767.848 | 0.3306
313.15 K, x1 = 0.7152 | 779.502 | 0.3436
313.15 K, x1 = 0.8138 | 792.362 | 0.3586
313.15 K, x1 = 0.9079 | 805.256 | 0.3741
313.15 K, x1 = 0.9552 | 811.996 | 0.3824
313.15 K, x1 = 1 | 818.536 | 0.3904

From the NIST ThermoML archive (doi:10.1007/s10765-010-0737-5)
